The values that follow come from ChEMBL document CHEMBL5576064, “Development of carbonic anhydrase IX-targeting molecular-targeted photodynamic therapy” (Bioorg Med Chem Lett, 2024).

For series [1], the system named is U-87 MG. Briefly: Photodynamic antitumor activity against human U87 cells assessed as inhibition of cell growth at 1 uM incubated for 60 mins followed by compound washout and addition of ROS scavenger NaN3 and light irradiation measured after 72 hrs by MTT assay. It counts as functional, cell-based. Conditions: U-87MG ATCC.
Series [2] deals with U-87 MG. Briefly: Photodynamic antitumor activity against human U87 cells assessed as inhibition of cell growth at 1 uM incubated for 60 mins followed by compound washout and addition of ROS scavenger NaN3 upto 30 uM and light irradiation measured after 72 hrs by MTT assay. It counts as functional, cell-based. The note with it: U-87MG ATCC. (Tetrazolium assays rely on reduction of a dye to a coloured formazan, in cell work by metabolically active cells.)

Series [3] deals with U-87 MG. Description: Photodynamic antitumor activity against human U87 cells assessed as inhibition of cell growth incubated for 60 mins followed by compound washout and light irradiation measured after 72 hrs by MTT assay. The format is functional, cell-based, U-87MG ATCC. The note with it: light or radiation study.
The target of series [4] is Carbonic anhydrase 9 (Homo sapiens) (UniProt Q16790). Briefly: Inhibition of carbonic anhydrase IX in human U87 cells assessed as nuclear localization of CAIX at 1 uM incubated for 60 mins followed by compound washout and 540 nm light irradiation measured after 15 mins by Hoechst 33342 staining based immunostaining analysis. The format is cell-based.
The subject of series [5] is U-87 MG. Briefly: Photodynamic antitumor activity against human U87 cells assessed as inhibition of cell growth at 1 uM incubated for 60 mins followed by compound washout and addition of ROS scavenger NaP and light irradiation measured after 72 hrs by MTT assay. Conditions: U-87MG ATCC. It counts as functional, cell-based.
Series [6] has as its target Carbonic anhydrase 9 (Homo sapiens) (UniProt Q16790). Description: Inhibition of carbonic anhydrase IX in human A549 cells assessed as downregulation of CAIX expression at 1 uM incubated for 60 mins followed by compound washout and 540 nm light irradiation measured after 15 mins by Western blotting analysis. The format is cell-based.
The test system of series [7] is U-87 MG. Description: Photodynamic antitumor activity against human U87 cells assessed as inhibition of cell growth at 0.001 to 30 uM incubated for 60 mins followed by compound washout and light irradiation measured after 72 hrs by MTT assay. It counts as functional, cell-based. Conditions: U-87MG ATCC, dose 0.001-30 µM.
The target in series [8] is Carbonic anhydrase 9 (Homo sapiens) (UniProt Q16790). Description: Inhibition of carbonic anhydrase IX in human U87 cells assessed as downregulation of CAIX expression at 1 uM incubated for 60 mins by Western blotting analysis. It counts as cell-based. (In western blotting, separated proteins are transferred to a membrane and probed.)
The test system of series [9] is U-87 MG. Briefly: Photodynamic antitumor activity against human U87 cells assessed as inhibition of cell growth at 1 uM incubated for 60 mins followed by compound washout and addition of ROS scavenger Tiron and light irradiation measured after 72 hrs by MTT assay. It counts as functional, cell-based. Conditions: U-87MG ATCC.
Series [10] concerns U-87 MG. Description: Antitumor activity against human U87 cells assessed as inhibition of cell growth at 0.001 to 30 uM incubated for 60 mins by MTT assay. The format is functional, cell-based. Conditions: U-87MG ATCC, dose 0.001-30 µM.
Series [11] has as its system 4T1. Description: Photodynamic antitumor activity against mouse 4T1 cells implanted mouse model assessed as increase in tumor necrosis at 5 mg/kg,TOP administration followed by light irradiation measured after 12 days. It counts as functional, organism-based. Conditions: time 12.0 day.
Series [12] addresses Carbonic anhydrase 9 (Homo sapiens) (UniProt Q16790). Briefly: Inhibition of carbonic anhydrase IX in human U87 cells assessed as downregulation of CAIX expression at 1 uM incubated for 60 mins followed by compound washout and 540 nm light irradiation measured after 15 mins by Hoechst 33342 staining based immunostaining analysis. It counts as cell-based.
For series [13] the target is unchanged. Briefly: Inhibition of carbonic anhydrase IX in human A549 cells assessed as downregulation of CAIX expression at 1 uM incubated for 60 mins by Western blotting analysis. It counts as cell-based.
For series [14], the system named is 4T1. Description: Photodynamic antitumor activity against mouse 4T1 cells implanted mouse model assessed as reduction in tumor growth at 5 mg/kg,TOP administration measured after 12 days. It counts as functional, organism-based. Conditions: time 12.0 day.
Series [15] concerns U-87 MG. Description: Photodynamic antitumor activity against human U87 cells assessed as inhibition of cell growth at 1 uM incubated for 60 mins followed by compound washout and addition of ROS scavenger Trolox and light irradiation measured after 72 hrs by MTT assay. Conditions: U-87MG ATCC. It counts as functional, cell-based.
The test system of series [16] is 4T1. Briefly: Photodynamic antitumor activity against mouse 4T1 cells implanted mouse model assessed as reduction in tumor growth at 5 mg/kg,TOP administration followed by light irradiation measured after 12 days. The format is functional, organism-based. The note with it: time 12.0 day.
The nature of series [17]: Toxicity in mouse implanted with mouse 4T1 cells assessed as change in body weight at 5 mg/kg,TOP administration followed by light irradiation measured after 12 days. It counts as organism-based. Conditions: in vivo, topical_or_ocular, 288 h, time 12 day.
Series [18] relates to U-87 MG. Description: Photodynamic antitumor activity against human U87 cells assessed as inhibition of cell growth at 1 uM incubated for 60 mins followed by compound washout and addition of ROS scavenger D-mannitol and light irradiation measured after 72 hrs by MTT assay. The note with it: U-87MG ATCC. The format is functional, cell-based.
Series [19] relates to 4T1. Description: Photodynamic antitumor activity against mouse 4T1 cells implanted mouse model assessed as increase in tumor degeneration at 5 mg/kg,TOP administration followed by light irradiation measured after 12 days. It counts as functional, organism-based. The note with it: time 12.0 day.
Series [20] is described as follows: Toxicity in mouse implanted with mouse 4T1 cells assessed as change in body weight at 5 mg/kg,TOP administration measured after 12 days. It counts as organism-based. The note with it: in vivo, topical_or_ocular, 288 h, time 12 day.
Series [21] has as its system U-87 MG. Briefly: Photodynamic antitumor activity against human U87 cells assessed as increase in ATP release incubated for 1 hr followed by compound washout and 540 nm light irradiation measured upto 10 mins by luciferase assay. The format is functional, cell-based. Conditions: U-87MG ATCC.
Series [22] concerns A549. Briefly: Antitumor activity against human A549 cells assessed as inhibition of cell growth at 0.001 to 30 uM incubated for 60 mins by MTT assay. The note with it: dose 0.001-30 µM. The format is functional, cell-based.
For series [23], the target named is Carbonic anhydrase 9 (Homo sapiens) (UniProt Q16790). Description: Inhibition of carbonic anhydrase IX in human U87 cells assessed as downregulation of CAIX expression at 1 uM incubated for 60 mins followed by compound washout and 540 nm light irradiation measured after 15 mins by Western blotting analysis. The format is cell-based.
The subject of series [24] is A549. Description: Photodynamic antitumor activity against human A549 cells assessed as inhibition of cell growth at 0.001 to 30 uM incubated for 60 mins followed by compound washout and light irradiation measured after 72 hrs by MTT assay. It counts as functional, cell-based. Conditions: dose 0.001-30 µM.
Series [25] concerns A549. Description: Photodynamic antitumor activity against human A549 cells assessed as inhibition of cell growth incubated for 60 mins followed by compound washout and light irradiation measured after 72 hrs by MTT assay. It counts as functional, cell-based. Conditions: A549, light or radiation study.

Calls of active or inactive are those of the source. The rule behind the calls is not given here.

As a reminder, the IC50 is the concentration that inhibits the measured activity by half. Take `Cc1c(I)c(C)n2c1C=C1C=C(I)C(CCC(=O)NCCCCCCNC(=O)c3ccc(S(N)(=O)=O)cc3)=[N+]1[B-]2(F)F`: the outcome in the series on U-87 MG [1], in the series on U-87 MG [2], in the series on U-87 MG [10], in the series with 4T1 [14] and with A549 [22] was inactive. Also, the IC50 in the series on U-87 MG [3] is 50 nM; in the series on A549 [25] it was 200 nM. Also, the inhibition result in series [4], in series [6], in series [12] and in series [23] was “Active” throughout. For the same compound, the result in the series on U-87 MG [5], in the series on U-87 MG [9], with 4T1 [11], in the series on U-87 MG [15], with 4T1 [16] and with U-87 MG [18] was Active. Further, the outcome in the series with 4T1 [19] and in the series on U-87 MG [21] was Active. Further, the Activity entry in the series on U-87 MG [7] is “Dose-Dependent Effect”; in series [17], “Non-Toxic”; in series [20], “Non-Toxic”; in the series with A549 [24] it was “Dose-Dependent Effect”. Besides, the inhibition entry in series [8] and in series [13] was “inactive” in each case.
As for `Cc1c(Br)c(C)n2c1C=C1C=C(Br)C(CCC(=O)NCCCCCCNC(=O)c3ccc(S(N)(=O)=O)cc3)=[N+]1[B-]2(F)F`, the IC50 in the series on U-87 MG [3] was 300 nM; in the series with A549 [25] it was 400 nM. For the same compound, the inhibition result in [6] and in [23] was “Active” throughout. In addition, the Activity entry with U-87 MG [7] and in the series on A549 [24] was “Dose-Dependent Effect” in each case. Besides, the inhibition result in series [8] and in [13] was “inactive” each time. In addition, the result in the series with U-87 MG [10] and in the series on A549 [22] was inactive.
Take `Cc1cc(C)n2c1C=C1C=CC(CCC(=O)NCCCCCCNC(=O)c3ccc(S(N)(=O)=O)cc3)=[N+]1[B-]2(F)F`: the concentration for half-maximal inhibition (IC50) in the series with U-87 MG [3] stood at 18900 nM; in the series with A549 [25], 21300 nM.
